Measured values taken from patent EP0298135A1, “Phenylalanine derivative and proteinase inhibitor” (Okamoto, Shosuke, priority 1987, dated 1989).

Experiments:
Assay type in all cases: biochemical
bovine thrombin [1] = molecular target: T1, bovine thrombin (Bos taurus, UniProt P00735); assay: Antithrombin activity: inhibition of S-2238 decomposition
Procedure: (ii) Determination of inhibition activity on S-2238 decomposition
An inhibitor sample is dissolved in a 0.05 M Tris-hydrochloric acid buffer solution (pH = 8.3) to bring the a total volume to 400 µl. To this solution, 50 µl of a 0.2 mM S-2238 solution is added and the mixture is incubated at a temperature of 37°C for 5 minutes in a constant temperature bath. Then 50 µl of a 0.2 unit/ml bovine thrombin solution is added thereto and the absorbance, at 405 nm, of the p-nitroaniline formed per minute is determined at a temperature of 37°C by using the so-called initial velocity method. Thus, the concentration I₅₀ (µmol) of the inhibitor sample, at which the absorbance is one half (i.e., l/2) of that obtained in the absence of the inhibitor sample, is determined.

bovine trypsin = molecular target: T2, bovine trypsin (Bos taurus, UniProt P00760); assay: Antitrypsin activity: inhibition of S-2238 decomposition; details: Table 2; substrate S-2238, pH 8.1, 37°C; read-out: Trypsin S-2238 (concentration I₅₀)
T2 sequence (P00760 24-246): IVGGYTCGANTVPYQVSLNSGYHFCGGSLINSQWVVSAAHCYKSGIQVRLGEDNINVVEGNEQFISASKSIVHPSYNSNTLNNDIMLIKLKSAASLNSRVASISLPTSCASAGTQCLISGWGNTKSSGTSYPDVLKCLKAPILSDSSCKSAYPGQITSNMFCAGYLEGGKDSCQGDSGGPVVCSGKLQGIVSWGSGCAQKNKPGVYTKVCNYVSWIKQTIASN
Procedure: Determination of inhibition activity against S-2238 decomposition An inhibitor sample is dissolved in a 0.05 M Tris-imidazole buffer solution (pH = 8.l) and l25 µl of a l mM S-2238 solution is added to bring the total volume to l.20 ml. The mixture is incubated at a temperature of 37°C for 5 minutes in a constant temperature bath. To this mixture, 0.05 ml of bovine trypsin is added and the absorbance, at 405 nm, of the p-nitroaniline formed per minute is determined at a temperature of 37°C by using the so-called initial velocity method. Thus, the concentration I₅₀ (µmol) of the inhibitor sample, at which the absorbance is one half (i.e., l/2) of that obtained in the absence of the inhibitor sample, is determined.

human plasmin [2] = molecular target: T3, human plasmin (Homo sapiens, UniProt P00747); assay: Antiplasmin activity: inhibition of S-2251 decomposition; details: Table 2; substrate S-2251, pH 7.4, 37°C; read-out: Plasmin S-2251 (concentration I₅₀)
T3 sequence (P00747 581-810 limits assumed): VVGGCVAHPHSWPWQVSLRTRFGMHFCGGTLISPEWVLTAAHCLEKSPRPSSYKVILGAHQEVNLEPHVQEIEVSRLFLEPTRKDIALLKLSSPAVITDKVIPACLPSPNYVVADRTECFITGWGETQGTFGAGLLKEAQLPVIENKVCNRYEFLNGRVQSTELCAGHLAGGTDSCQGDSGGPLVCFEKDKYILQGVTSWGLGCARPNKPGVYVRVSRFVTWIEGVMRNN
T3 sequence (P00747 97-580 partner limits assumed): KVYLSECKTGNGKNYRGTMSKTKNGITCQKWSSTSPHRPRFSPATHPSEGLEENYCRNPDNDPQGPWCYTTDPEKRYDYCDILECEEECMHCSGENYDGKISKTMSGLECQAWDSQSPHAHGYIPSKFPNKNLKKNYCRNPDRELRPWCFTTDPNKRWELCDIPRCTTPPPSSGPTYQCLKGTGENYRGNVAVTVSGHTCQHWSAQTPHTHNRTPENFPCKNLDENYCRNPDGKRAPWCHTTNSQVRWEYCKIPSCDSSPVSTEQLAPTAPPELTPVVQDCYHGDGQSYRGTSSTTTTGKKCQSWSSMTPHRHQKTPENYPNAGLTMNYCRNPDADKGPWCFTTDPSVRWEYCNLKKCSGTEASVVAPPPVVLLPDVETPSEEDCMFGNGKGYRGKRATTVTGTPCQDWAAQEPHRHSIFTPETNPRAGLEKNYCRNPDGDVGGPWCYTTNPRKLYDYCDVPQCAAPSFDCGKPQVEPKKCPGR
Procedure: (ii) Determination of inhibition activity on S-225l decomposition
An inhibitor sample is dissolved in a 0.05 M Tris-hydrochloric acid buffer solution (pH = 7.4) to bring the total volume to 400 µl. To this solution, 50 µl of a 3 mM S-225l solution is added and the mixture is incubated at a temperature of 37°C for 5 minutes in a constant temperature bath. Then 50 µl of a 0.2 casein unit/ml human plasmin is added and the mixture is incubated at a temperature of 37°C for 4 minutes. Thereafter, the reaction is stopped by adding 50 µl of 50% acetic acid.
Thus, the concentration I₅₀ (µmol) of the inhibitor sample, at which the absorbance is one half (i.e., l/2) of that obtained in the absence of the inhibitor, is determined.

bovine thrombin [3] = molecular target: T1, bovine thrombin; assay: Antithrombin activity: inhibition of fibrin formation from fibrinogen
Procedure: (i) Determination of inhibition activity against fibrin formation
An inhibitor sample is dissolved in a 0.l8 M borate-physiological salt buffer solution (pH = 7.4) to bring the total volume to 500 µl. To this solution, 400 µl of a 0.2% bovine fibrinogen solution and l00 µl of a 4 unit/ml bovine thrombin solution are added at a temperature of 37°C in a constant temperature bath. Thus, a coagulation time is determined. The inhibitor concentration I₅₀ (µmol), at which the coagulation time obtained in the absence of the inhibitor is extended twice, is determined.

human plasmin [4] = molecular target: T3, human plasmin; assay: Antiplasmin activity: inhibition of fibrin decomposition; details: Table 2; concentration at which fibrin dissolution time is extended twice, pH 7.4, 37°C; read-out: Plasmin Fibrin (concentration I₅₀)
Procedure: (i) Determination of inhibition activity on fibrin decomposition
An inhibitor sample is dissolved in a 0.l8 M borate-physiological salt buffer solution (pH = 7.4) to bring the total volume to 600 µl. To this buffer solution, 200 µl of a 0.2% bovine fibrinogen, l00 µl of a 0.3 casein unit/ml human plasmin solution, and l00 µl of a 50 unit/ml bovine thrombin solution, all dissolved in the above-mentioned buffer, are added at a temperature of 37°C in a constant temperature bath. The dissolution time of the fibrin mass formed above is then determined.

human plasma kallikrein = human plasma kallikrein (Homo sapiens, UniProt P03952); assay: Anti-plasma kallikrein activity: inhibition of S-2302 decomposition; details: Table 2; substrate S-2302, pH 7.8, 37°C; read-out: Plasma Kallikrein S-2302 (concentration I₅₀)
human plasma kallikrein, sequence (P03952 391-638 limits assumed): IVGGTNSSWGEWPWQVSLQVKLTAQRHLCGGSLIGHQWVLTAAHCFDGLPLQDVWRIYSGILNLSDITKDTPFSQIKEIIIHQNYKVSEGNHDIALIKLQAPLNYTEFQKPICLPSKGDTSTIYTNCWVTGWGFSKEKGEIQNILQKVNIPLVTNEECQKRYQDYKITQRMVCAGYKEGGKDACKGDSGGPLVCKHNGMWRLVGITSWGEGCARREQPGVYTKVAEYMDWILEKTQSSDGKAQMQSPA
human plasma kallikrein, sequence (P03952 20-390 partner limits assumed): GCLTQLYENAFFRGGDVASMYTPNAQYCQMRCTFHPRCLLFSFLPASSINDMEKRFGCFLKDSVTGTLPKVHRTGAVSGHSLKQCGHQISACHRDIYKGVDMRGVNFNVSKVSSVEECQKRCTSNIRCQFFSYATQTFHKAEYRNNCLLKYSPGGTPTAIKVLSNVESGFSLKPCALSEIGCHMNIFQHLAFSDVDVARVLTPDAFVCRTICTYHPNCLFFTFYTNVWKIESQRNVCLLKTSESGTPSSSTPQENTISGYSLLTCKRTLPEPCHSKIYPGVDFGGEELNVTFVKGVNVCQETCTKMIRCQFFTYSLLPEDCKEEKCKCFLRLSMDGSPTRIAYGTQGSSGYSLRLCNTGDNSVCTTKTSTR
Procedure: An inhibitor sample is dissolved in a 0.05 M Tris-hydrochloric acid buffer solution (pH = 7.8) to bring the total volume to 400 µl. […] Then, 50 µl of a 0.l2 unit/ml human plasma kallikrein is added and the mixture is incubated at a temperature of 37°C for 5 minutes. Thereafter, 50 µl of 50% acetic acid is added to terminate the reaction. […] Thus, the concentration I₅₀ (µmol) of the inhibitor sample, at which the absorbance is one half (i.e., l/2) of that obtained in the absence of the inhibitor sample, is determined.

human urokinase = human urokinase (Homo sapiens, UniProt P00749); assay: Antiurokinase activity: inhibition of S-2444 decomposition; details: Table 2; substrate S-2444, pH 8.8, 37°C; read-out: Urokinase S-2444 (concentration I₅₀)
Procedure: Determination of inhibition activity for S-2444 decomposition
An inhibitor sample is dissolved in a 0.05 M Tris-hydrochloric acid buffer solution (pH = 8.8) to bring the total volume to 400 µl. To this solution, 50 µl of a l mM S-2444 solution is added and the mixture is incubated at a temperature of 37°C for 5 minutes in a constant temperature bath. Then 50 µl of a 500 unit/ml human urokinase is added and the mixture is incubated at a temperature of 37°C for 5 minutes. Thereafter, 50 µl of 50% acetic acid is added to terminate the reaction. The absorbance of the p-nitroaniline formed in the reaction mixture is measured at 405 nm. Thus, the concentration I₅₀ (µmol) of the inhibitor sample, at which the absorbance is one half (i.e., l/2) of that obtained in the absence of the inhibitor sample, is determined.

Row | Structure (SMILES) | IC50 (bovine thrombin [1]) | IC50 (bovine trypsin) | IC50 (human plasmin [2]) | IC50 (bovine thrombin [3]) | IC50 (human plasmin [4]) | IC50 (human plasma kallikrein) | IC50 (human urokinase)
1 | NCCCCC(=O)N[C@@H](Cc1ccccc1)C(=O)Nc1ccc(C(=O)c2ccccc2)cc1 [Compound No. 2, N-(5-aminovaleryl)-L-phenylalanine 4-benzoylanilide] | > 200 µM | 75 µM | 120 µM | > 100 µM | > 100 µM |  | 
2 | CCOC(=O)CC(O)CNC(=O)[C@H](Cc1ccccc1)NC(=O)CCCCCN (stereo partly drawn) [compound 5] | > 500 µM |  | > 500 µM | > 500 µM | > 500 µM | > 500 µM | > 500 µM
3 | CC(=O)c1ccc(NC(=O)[C@H](Cc2ccccc2)NC(=O)c2ccc(NC(=N)N)cc2)cc1 [compound 15] | 330 µM | 14 µM | > 400 µM | > 500 µM | > 200 µM | 2.2 µM | 190 µM
4 | COC(=O)[C@@H]1CCCN1C(=O)[C@H](Cc1ccccc1)NC(=O)c1ccc(NC(=N)N)cc1 [compound 22] | > 1000 µM |  | > 1000 µM | > 1000 µM | > 1000 µM | > 1000 µM | > 1000 µM
